For this test, the system named is lasered monkey model of ocular hypertension. Briefly: IOP response in the lasered monkey model of ocular hypertension. To be noted: for IOP Response % Change, 1 hr / IOP decrease from baseline (mmHg) / IOP Response % Change, 3 hr / IOP Response % Change, 6 hr: 300 μg topical, one 30 μL aliquot to right (lasered) eye, change from baseline IOP; for effect on IOP (in words): dosed at 300 μg, lasered monkey model of ocular hypertension. The class given is in vivo, cynomolgus monkeys. How it is done: Intraocular pressure was determined with an Alcon Pneumatonometer after light corneal anesthesia with 0.1% proparacaine. Eyes were washed with saline after-each measurement. After a baseline IOP measurement, test compound was instilled in one 30 μL aliquot to the right eyes only of nine cynomolgus monkeys. Vehicle was instilled in the right eyes of six additional animals. Subsequent IOP measurements were taken at 1, 3, and 6 hours. A compound is considered efficacious in this model of ocular hypertension if there is a decrease in the baseline IOP of the lasered eye (O.D.) of at least 20% following topical administration.

Consider `CC(N)Cn1ncc2ccc(O)cc21` (single isomer, unassigned; isomer 1) [S-(+)-isomer, 1-(2-aminopropyl)-indazol-6-ol], for which the “effect on IOP (in words)” value is “significant decrease in IOP”. Under “1 hr after dosing”, the “IOP Response % Change, 1 hr” value was −15.0% and the “IOP decrease from baseline (mmHg)” value is recorded as 6.4 mmHg. Further, for the setting “3 hr after dosing”, the “IOP Response % Change, 3 hr” value was −35.3% and the “IOP decrease from baseline (mmHg)” value is listed as 14.8 mmHg. For the same compound, for the setting “6 hr after dosing”, the “IOP Response % Change, 6 hr” value is given as −40.8% and the “IOP decrease from baseline (mmHg)” value is 17.1 mmHg.

On to `CC(N)Cn1ncc2ccc(O)cc21` (centres unmarked) [Compound, 1-(2-aminopropyl)-indazol-6-ol], for which the “effect on IOP (in words)” value is “significant decrease in IOP”. Moreover, under “1 hr after dosing”, the “IOP Response % Change, 1 hr” value is on record as −17.6% and the “IOP decrease from baseline (mmHg)” value was determined as 7.3 mmHg. For the setting “3 hr after dosing”, the “IOP Response % Change, 3 hr” value is on record as −28.1% and the “IOP decrease from baseline (mmHg)” value turned out to be 11.8 mmHg. Moreover, under “6 hr after dosing”, the “IOP Response % Change, 6 hr” value is −33.8% and the “IOP decrease from baseline (mmHg)” value is 14.6 mmHg.

These data come from patent US6927233B1, “5ht2 agonists for controlling IOP and treating glaucoma” (Alcon, Inc., priority 2000, dated 2005).
